Tests used:
[1] = test system: Neonatal Rat Ventricular Myocytes (NRVMs); assay: Myocyte proliferation assay (EdU assay) in neonatal rat ventricular myocytes; assay type: cell-based; details: growth relative to blank myocyte growth without compound added; for Avg 1 uM (average myocyte proliferation): compound 1 uM; for Avg 3 uM (average myocyte proliferation): compound 3 uM; for Avg 10 uM (average myocyte proliferation): compound 10 uM
Procedure: 1. Isolation of and Culture Neonatal Rat Ventricular Myocytes (NRVMs)
Ventricles from neonatal rats were separated from the atria, cut into small pieces (about 2×2 mm^2) and then dissociated in Ca2+-free HBSS containing 0.125 mg ml-1 trypsin (Gibco), 10 μg ml-1 DNase II (Sigma) and 0.1 mg ml-1 collagenase type IV (Sigma). The digestion was carried out under constant stirring at 37° C. for 5 min. The supernatant was collected with FBS (Gibco) after each digestion period. After digestion, the collected supernatant was centrifuged at 1000 g for 10 min at room temperature, and then cell pellets were resuspended in DMEM (Gibco) supplemented with 10% FBS and with 100 uM 5-bromo-2′-deoxyuridine (Sigma). The resuspended cells were passed through a cell strainer ([…], BD Falcon) and seeded onto 100-mm plastic dishes for 2 h at 37° C. in a 5% CO2 to remove fibroblasts, the supernatant was then collected and plated onto 1% gelatin (Sigma)-coated dishes. 24 h after the seeding, the medium was changed to DMEM (Gibco) containing 2% FBS (Gibco), 1% insulin-transferrin-selenium (ITS; Gibco), 1% Penicillin-Streptomycin (Gibco). After 24 hours of low serum culture, remove the medium with DMEM (Gibco) containing 6% FBS (Gibco), 1% insulin-transferrin-selenium (ITS; Gibco), 1% Penicillin-Streptomycin (Gibco), different concentrations of compounds (the compounds were pre-diluted in the medium and the drug concentration was 10 uM, 3 uM, 1 uM, fully mixed). After 36 h add Edu substrate (Invitrogen) according to the manufacturer's guidelines, and then after 12 h cell can be used.
• 2.1. Immobilization: Remove the medium and fix the cells with […] in 200 ul (whichever is covered) for 15 min and wash the cells twice with 500 ul of PBS for 5 min each time. • 2.2. Broken membrane: Add 200 ul of 0.3% Triton-X 100 (diluted in PBS) to each well, incubate for 10-15 min at room temperature (the time should not be too long), and wash the cells twice with 500 ul of PBS for 5 min each time. • 2.3. Blocking: Add 200 ul of 10% normal goat serum (diluted with 0.1% PBST) to each well, incubate for 1 h at room temperature, and wash twice with 500 ul of 0.1% PBST for 5 min each time. • 2.4. Primary antibody: dilute the primary antibody (abcam, ab8295) to blocking solution at a ratio of 1:200, add 100 ul per well, incubate for 1 h at room temperature (may be slightly longer than 2-3 h), wash the cells twice with 500 ul 0.1% PBST for 5 min each time. • 2.5. Secondary antibody: Dilute the fluorescently labeled secondary antibody (abcam, ab150117) into blocking solution at a ratio of 1:200, add 100 ul per well, incubate for 1 h at room temperature (the time should not be too long), wash the cells twice with 0.1% PBST for 5 min each time, pay attention to the whole process. Protected from light. • 2.6. Edu staining (Invitrogen C10338) • 2.6.1 Prepare Click-iT® reaction cocktail according to Table 3. It was important to add the ingredients in the order listed in the table; otherwise, the reaction would not proceed optimally. Use the Click-iT® reaction cocktail within 15 minutes of preparation.
• 2.6.2 Add 0.1 mL of Click-iT® reaction cocktail to each well containing a coverslip. Rock the plate briefly to ensure that the reaction cocktail is distributed evenly over the coverslip. • 2.6.3 Incubate the plate for 30 minutes at room temperature, protected from light. • 2.6.4 Remove the reaction cocktail, then wash the cells twice with 0.1% PBST for 5 min each time. • 2.7. DAPI staining: DAPI stain was diluted to PBS at a ratio of 1:1000, 100 ul per well, incubated for 30 min at room temperature, and the cells were washed twice with PBS for 5 min each. 3. Data Analysis
We used Molecular Devices' Image Xpress Micro Confocal for high-throughput photo and data analysis.

human CLK1 = target: T1, human CLK1 (Homo sapiens, UniProt P49759); assay: CLK1 enzyme assay (ADP-Glo); assay type: biochemical; details: ADP-Glo, ATP 10 μM; read-out: CLK1 IC50
T1 construct: Recombinant human CLK1 (129-end); GST (N); purchased SignalChem C57-11G; host or cells: Sf9 insect cells
T1 sequence (P49759 129-484 limits assumed): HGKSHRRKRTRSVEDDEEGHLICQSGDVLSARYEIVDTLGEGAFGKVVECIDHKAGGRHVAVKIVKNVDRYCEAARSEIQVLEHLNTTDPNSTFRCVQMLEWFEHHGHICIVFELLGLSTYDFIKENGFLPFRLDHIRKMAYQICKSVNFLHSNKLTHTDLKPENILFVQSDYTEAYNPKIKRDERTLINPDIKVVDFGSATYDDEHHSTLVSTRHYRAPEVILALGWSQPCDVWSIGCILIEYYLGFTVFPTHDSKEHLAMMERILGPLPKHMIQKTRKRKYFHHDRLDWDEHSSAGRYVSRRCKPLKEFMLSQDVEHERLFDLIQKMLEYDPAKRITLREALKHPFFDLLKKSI
Procedure: The ability of compounds to inhibit human CLK1 kinase activities was determined using a commercially available ADP-Glo™ Kinase Assay kit (Promega, Cat #V9102) according to the manufacturer's protocol.
Recombinant human CLK1 (129-end) (expressed in Sf9 insect cells with an N-terminal GST tag) was purchased from SignalChem (Cat #C57-11G). Recombinant full length human MBP (expressed in E. Coli cells with an N-terminal GST tag.) was purchased from SignalChem (Cat #M42-54G). This assay, run in a 384-well plate format, is a generic method for measuring kinase activities using an ADP-Glo Kinase Assay Kit. The basic assay procedure involves two steps: (1) Enzymatic step: inhibitors are incubated with the kinase and then ATP (included in the ADP-Glo Kinase Assay Kit) and the MBP protein are added to start the enzymatic reaction; (2) Detection step: after the kinase reaction, first ADP-Glo™ Reagent is added to terminate the kinase reaction and deplete the remaining ATP. Second, the Kinase Detection Reagent is added to simultaneously convert ADP to ATP and allow the newly synthesized ATP to be measured using a luciferase/luciferin reaction. The light generated is measured using a luminometer.
Briefly, CLK1 (16 nM) in the enzymatic buffer solutions (40 mM Tris, pH 7.5, 20 mM MgCl2, 0.1 mg/ml BSA, 50 μM DTT) were mixed with various concentrations of inhibitors (dissolved in 100% DMSO). These solutions were incubated for 30 minutes at 25° C., and subsequently a mixture of substrate peptide and ATP was added with the final peptide and ATP concentrations at 2 μM and 10 μM, respectively. The final reaction mixture of enzyme-substrate-ATP-compound was incubated for 60 minutes at 25° C.
Afterwards ADP-Glo™ Reagent was added and the mixture was incubated at 25° C. for 60 minutes. Then Kinase Detection Reagent was added and the final mixture was incubated at 25° C. for 60 minutes. The luminescence signal of the final solution was measured on an Envision instrument (PerkinElmer). The percent (%) inhibition at each concentration of a compound is calculated relative to the luminescence signal in the Max and Min control wells contained within each assay plate. […] The concentrations and percent inhibition values for a test compound are plotted and the concentration of the compound required to achieve 50% inhibition (IC50) is determined with a four-parameter logistic dose response equation.

O=C1NC(N(CC2CC2)c2ccc3ncsc3c2)=N/C1=C\c1ccc2ncsc2c1 [Example 105, (Z)-2-(benzo[d]thiazol-6-yl(cyclopropylmethyl)amino)-5-(benzo[d]thiazol-6-ylmethylene)-3,5-dihydro-4H-imidazol-4-one]
Avg 1 uM (average myocyte proliferation) [1]: ** (10%-50%) | Avg 3 uM (average myocyte proliferation) [1]: ** (10%-50%) | IC50 (human CLK1): > 10000 nM

O=C1NC(Nc2ccc3ncsc3c2)=N/C1=C\c1ccc2nc[nH]c2c1 [Example 76, (Z)-5-((1H-benzo[d]imidazol-6-yl)methylene)-2-(benzo[d]thiazol-6-ylamino)-3,5-dihydro-4H-imidazol-4-one]
Avg 1 uM (average myocyte proliferation) [1]: * (<10% growth relative to blank myocyte growth without compound added.) | Avg 3 uM (average myocyte proliferation) [1]: ** (10%-50%) | IC50 (human CLK1): < 100 nM

O=C1NC(Nc2ccc3ncsc3c2)=NC1Cc1ccc2ncsc2c1 (stereo not drawn) [Example 102, 2-(benzo[d]thiazol-6-ylamino)-5-(benzo[d]thiazol-6-ylmethyl)-3,5-dihydro-4H-imidazol-4-one]
Avg 1 uM (average myocyte proliferation) [1]: * (<10% growth relative to blank myocyte growth without compound added.) | Avg 3 uM (average myocyte proliferation) [1]: ** (10%-50%) | IC50 (human CLK1): 100 to 1000 nM

CN(C1=N/C(=C\c2ccc3c(c2)OCCO3)C(=O)N1)c1ccccc1 [Example 8, (Z)-5-((2,3-dihydrobenzo[b][1,4]dioxin-6-yl)methylene)-2-(methyl(phenyl)amino)-3,5-dihydro-4H-imidazol-4-one]
Avg 1 uM (average myocyte proliferation) [1]: ** (10%-50%) | Avg 3 uM (average myocyte proliferation) [1]: * (<10% growth relative to blank myocyte growth without compound added.) | Avg 10 uM (average myocyte proliferation) [1]: ** (10%-50%) | IC50 (human CLK1): 1000 to 10000 nM

CN(C1=N/C(=C\c2ccc3c(c2)OCO3)C(=O)N1)c1ccccc1 [Example 1, (Z)-5-(benzo[d][1,3]dioxol-5-ylmethylene)-2-(methyl(phenyl)amino)-3,5-dihydro-4H-imidazol-4-one]
Avg 1 uM (average myocyte proliferation) [1]: * (<10% growth relative to blank myocyte growth without compound added.) | Avg 3 uM (average myocyte proliferation) [1]: *** (>50%) | Avg 10 uM (average myocyte proliferation) [1]: ** (10%-50%) | IC50 (human CLK1): 100 to 1000 nM

O=C1NC(N(CC2CC2)c2ccccc2)=N/C1=C\c1ccc2c(c1)OCCO2 [Example 39, (Z)-2-((cyclopropylmethyl)(phenyl)amino)-5-((2,3-dihydrobenzo[b][1,4]dioxin-6-yl)methylene)-3,5-dihydro-4H-imidazol-4-one]
Avg 1 uM (average myocyte proliferation) [1]: *** (>50%) | Avg 3 uM (average myocyte proliferation) [1]: ** (10%-50%) | Avg 10 uM (average myocyte proliferation) [1]: * (<10% growth relative to blank myocyte growth without compound added.) | IC50 (human CLK1): > 10000 nM

O=C1NC(Nc2ccc3ncsc3c2)=N/C1=C\c1ccc2c(c1)OCO2 [Example 47, (Z)-5-(benzo[d][1,3]dioxol-5-ylmethylene)-2-(benzo[d]thiazol-6-ylamino)-3,5-dihydro-4H-imidazol-4-one]
Avg 1 uM (average myocyte proliferation) [1]: *** (>50%) | Avg 3 uM (average myocyte proliferation) [1]: *** (>50%) | Avg 10 uM (average myocyte proliferation) [1]: *** (>50%) | IC50 (human CLK1): > 10000 nM

O=C1NC(Nc2ccc3ncsc3c2)=N/C1=C\c1ccc2ncsc2c1 [Example 48, (Z)-2-(benzo[d]thiazol-6-ylamino)-5-(benzo[d]thiazol-6-ylmethylene)-3,5-dihydro-4H-imidazol-4-one]
Avg 1 uM (average myocyte proliferation) [1]: *** (>50%) | Avg 3 uM (average myocyte proliferation) [1]: *** (>50%) | Avg 10 uM (average myocyte proliferation) [1]: *** (>50%) | IC50 (human CLK1): < 100 nM

O=C1NC(Nc2ccccc2)=N/C1=C\c1ccc2cc[nH]c2c1 [Example 73, (Z)-5-((1H-indol-6-yl)methylene)-2-(phenylamino)-3,5-dihydro-4H-imidazol-4-one]
Avg 1 uM (average myocyte proliferation) [1]: * (<10% growth relative to blank myocyte growth without compound added.) | Avg 3 uM (average myocyte proliferation) [1]: * (<10% growth relative to blank myocyte growth without compound added.) | IC50 (human CLK1): > 10000 nM

Cn1cnc2cc(NC3=N/C(=C\c4ccc5ncsc5c4)C(=O)N3)ccc21 [Example 61, (Z)-5-(benzo[d]thiazol-6-ylmethylene)-2-((1-methyl-1H-benzo[d]imidazol-5-yl)amino)-3,5-dihydro-4H-imidazol-4-one]
Avg 1 uM (average myocyte proliferation) [1]: * (<10% growth relative to blank myocyte growth without compound added.) | Avg 3 uM (average myocyte proliferation) [1]: ** (10%-50%) | IC50 (human CLK1): 100 to 1000 nM

O=C1NC(NCC2CC2)=N/C1=C\c1ccc2ncsc2c1 [Example 34, (Z)-5-(benzo[d]thiazol-6-ylmethylene)-2-((cyclopropylmethyl)amino)-3,5-dihydro-4H-imidazol-4-one]
Avg 1 uM (average myocyte proliferation) [1]: ** (10%-50%) | Avg 3 uM (average myocyte proliferation) [1]: *** (>50%)

O=C1NC(NCc2ccccc2)=N/C1=C\c1ccc2ncsc2c1 [Example 31, (Z)-5-(benzo[d]thiazol-6-ylmethylene)-2-(benzylamino)-3,5-dihydro-4H-imidazol-4-one]
Avg 1 uM (average myocyte proliferation) [1]: ** (10%-50%) | Avg 3 uM (average myocyte proliferation) [1]: ** (10%-50%)

Source: patent publication US12643887B2, “Heterocyclic derivatives with cardiomyocyte proliferation activity for treatment of heart diseases” (Tongji University, priority 2019, dated 2026)
